Assay: xn = mol fraction of the nth substance listed

CCCC[N+](CCCC)(CCCC)CCCC.N#C[S-] + CCCOCC(C)O
electrical conductivity [S/m], 101 kPa
Settings	248.15 K	258.15 K	268.15 K	278.15 K	288.15 K	298.15 K	308.15 K	313.15 K
x1 = 0.01119	0.0011	0.00185	0.00285	0.00405	0.00541	–	0.00829	0.00901
x1 = 0.01571	0.00157	0.00271	0.00425	0.00618	0.00842	0.01082	0.01352	0.01485
x1 = 0.01893	0.0019	0.00331	0.00526	0.00773	0.01064	0.01386	0.01748	0.01934
x1 = 0.02277	0.00227	0.00401	0.00644	0.00956	0.01332	0.01758	0.02234	0.02493
x1 = 0.02903	0.00284	0.00511	0.00834	0.01257	0.01775	0.02385	0.03061	0.03428
x1 = 0.03808	0.00356	0.00652	0.01082	0.01658	0.02379	0.03253	0.04237	0.04779
x1 = 0.04326	0.0039	0.00723	0.01211	0.01864	0.02705	0.0372	0.04875	0.0548
x1 = 0.06196	0.00476	0.00908	0.01564	0.02482	0.03669	0.05153	0.06887	0.07879
x1 = 0.07662	0.00504	0.00979	0.01722	0.02776	0.04173	0.05942	0.0805	0.09266
x1 = 0.09291	0.005	0.00994	0.01782	0.02925	0.04479	0.06473	0.08902	0.1031
x1 = 0.1099	0.00469	0.00956	0.01751	0.02928	0.04564	0.06699	0.09343	0.109
x1 = 0.1312	0.00408	0.00857	0.01611	0.02768	0.04408	0.06606	0.09376	0.1103
x1 = 0.1458	0.0036	0.00773	0.01481	0.02593	0.0419	0.06371	0.09151	0.1083

CCC[N+](C)(C)C.O=S(=O)([N-]S(=O)(=O)C(F)(F)F)C(F)(F)F + CCC[N+]1(C)CCCC1.O=S(=O)([N-]S(=O)(=O)C(F)(F)F)C(F)(F)F
101.3 kPa
Settings	viscosity [mPa·s]
283.15 K, x1 = 0.4	135
283.15 K, x1 = 0.6	148
283.15 K, x1 = 1	179
288.15 K, x1 = 0.6	113
288.15 K, x1 = 1	133
293.15 K, x1 = 0.4	81
303.15 K, x1 = 0.8	59
308.15 K, x1 = 0.2	42.2
308.15 K, x1 = 0.6	46.1
313.15 K, x1 = 0.6	38.2
318.15 K, x1 = 0.8	33.4
323.15 K, x1 = 0.8	28.3
323.15 K, x1 = 1	29.5
328.15 K, x1 = 0.2	22
328.15 K, x1 = 0.4	22.2
328.15 K, x1 = 0.8	24.2
333.15 K, x1 = 0.2	19.1
333.15 K, x1 = 0.4	19.3
333.15 K, x1 = 0.6	20.3
333.15 K, x1 = 1	21.7
343.15 K, x1 = 0.4	14.9
348.15 K, x1 = 0.4	13.3
353.15 K, x1 = 0.2	11.8
353.15 K, x1 = 0.6	12.3

CCC[N+](C)(C)C.O=S(=O)([N-]S(=O)(=O)C(F)(F)F)C(F)(F)F + CCC[N+]1(C)CCCCC1.O=S(=O)([N-]S(=O)(=O)C(F)(F)F)C(F)(F)F
101.3 kPa
Settings	viscosity [mPa·s]
283.15 K, x1 = 0.6	248
283.15 K, x1 = 0.8	201
293.15 K, x1 = 0.6	134
293.15 K, x1 = 0.8	113
308.15 K, x1 = 0.4	71
308.15 K, x1 = 0.6	64
313.15 K, x1 = 0.8	45.9
318.15 K, x1 = 0.4	46.4
318.15 K, x1 = 0.6	42.3
343.15 K, x1 = 0.4	20.2
343.15 K, x1 = 0.8	17.5
348.15 K, x1 = 0.8	15.4
348.15 K, x1 = 1	14.6

CC(=O)[O-].CC[n+]1ccn(C)c1 + CCO
Settings	electrical conductivity [S/m]	viscosity [mPa·s]
278.15 K, 101 kPa, x2 = 0.201	–	264
278.15 K, 101 kPa, x2 = 0.9	–	3.396
288.15 K, 101 kPa, x2 = 0	–	284
288.15 K, 101 kPa, x2 = 0.1	–	206.6
288.15 K, 101 kPa, x2 = 0.8	–	5.15
293.15 K, 101.3 kPa, x2 = 0	0.243	–
293.15 K, 101.3 kPa, x2 = 0.0733	0.247	–
293.15 K, 101.3 kPa, x2 = 0.1229	0.269	–
293.15 K, 101.3 kPa, x2 = 0.2965	0.433	–
293.15 K, 101.3 kPa, x2 = 0.4286	0.63	–
293.15 K, 101.3 kPa, x2 = 0.5373	0.991	–
293.15 K, 101.3 kPa, x2 = 0.7309	1.447	–
293.15 K, 101.3 kPa, x2 = 0.7625	1.539	–
293.15 K, 101.3 kPa, x2 = 0.7754	1.615	–
293.15 K, 101.3 kPa, x2 = 0.8081	1.329	–
293.15 K, 101.3 kPa, x2 = 0.8897	0.71	–
293.15 K, 101.3 kPa, x2 = 0.9163	0.505	–
293.15 K, 101.3 kPa, x2 = 0.9299	0.404	–
293.15 K, 101.3 kPa, x2 = 0.9383	0.335	–
293.15 K, 101.3 kPa, x2 = 0.9494	0.252	–
298.15 K, 101 kPa, x2 = 0.4002	–	31.8
298.15 K, 101 kPa, x2 = 0.5001	–	20.04
298.15 K, 101 kPa, x2 = 0.8666	–	2.67
308.15 K, 101 kPa, x2 = 0.2999	–	32.06
308.15 K, 101 kPa, x2 = 0.6	–	9.27
308.15 K, 101 kPa, x2 = 0.8	–	3.398
313.15 K, 101 kPa, x2 = 0.1059	–	43.5
313.15 K, 101 kPa, x2 = 0.2471	–	28.5
313.15 K, 101 kPa, x2 = 0.5572	–	9.24
313.15 K, 101 kPa, x2 = 0.7494	–	3.89
318.15 K, 101 kPa, x2 = 0.1	–	39.7
318.15 K, 101 kPa, x2 = 0.201	–	29.99
318.15 K, 101 kPa, x2 = 0.2999	–	22.19
318.15 K, 101 kPa, x2 = 0.4002	–	15.76
318.15 K, 101 kPa, x2 = 0.6	–	7.27
318.15 K, 101 kPa, x2 = 0.9	–	1.591
328.15 K, 101 kPa, x2 = 0	–	30.3
328.15 K, 101 kPa, x2 = 0.7	–	3.833
338.15 K, 101 kPa, x2 = 0	–	21.85
338.15 K, 101 kPa, x2 = 0.8	–	2.049
343.15 K, 101 kPa, x2 = 0.1059	–	14.96
343.15 K, 101 kPa, x2 = 0.3504	–	8.69
343.15 K, 101 kPa, x2 = 0.4165	–	7.31

Source: the CheMixHub ionic liquid set
